From ChEMBL document CHEMBL4346743, “Design and synthesis of biotinylated Hexylselen as a probe to identify KGA allosteric inhibitors by a convenient biomolecular interaction assay” (Bioorg Med Chem Lett, 2019)
Activity calls are given as the source filed them. No cut-off for these calls is given here.

Experiments:
[1] = biological target: T1, Glutaminase kidney isoform, mitochondrial (Homo sapiens, UniProt O94925); test: Allosteric inhibition of human KGA assessed as reduction in glutamate formation using glutamine as substrate pretreated with enzyme for 15 mins followed by substrate addition and measured after 3 hrs by KGA/GDH coupled assay
T1 sequence (O94925 whole entry): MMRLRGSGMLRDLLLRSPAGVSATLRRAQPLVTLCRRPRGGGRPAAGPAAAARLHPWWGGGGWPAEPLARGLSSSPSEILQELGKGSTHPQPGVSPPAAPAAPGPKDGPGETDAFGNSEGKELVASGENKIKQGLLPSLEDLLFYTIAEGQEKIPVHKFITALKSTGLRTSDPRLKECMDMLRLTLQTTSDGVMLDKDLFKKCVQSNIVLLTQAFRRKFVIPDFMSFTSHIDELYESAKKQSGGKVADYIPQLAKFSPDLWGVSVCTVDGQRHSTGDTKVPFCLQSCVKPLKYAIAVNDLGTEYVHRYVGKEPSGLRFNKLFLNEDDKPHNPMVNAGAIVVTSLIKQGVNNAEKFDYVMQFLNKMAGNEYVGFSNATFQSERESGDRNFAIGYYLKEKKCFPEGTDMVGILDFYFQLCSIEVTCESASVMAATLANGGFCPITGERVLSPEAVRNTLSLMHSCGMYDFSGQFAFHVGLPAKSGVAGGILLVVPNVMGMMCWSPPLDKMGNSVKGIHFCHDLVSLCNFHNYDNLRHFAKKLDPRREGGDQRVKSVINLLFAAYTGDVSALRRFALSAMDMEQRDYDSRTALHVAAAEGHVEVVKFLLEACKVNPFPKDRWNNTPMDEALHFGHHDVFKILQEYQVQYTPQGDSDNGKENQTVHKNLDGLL

[2] = biological target: T1, Glutaminase kidney isoform, mitochondrial; test: Binding affinity to human KGA assessed as dissociation constant
[3] = biological target: T2, Glutaminase kidney isoform, mitochondrial (Homo sapiens) (UniProt O94925); test: Binding affinity to human KGA assessed as association rate constant at 33 uM
T2 sequence (whole entry): T1 sequence (O94925 whole entry)

[4] = biological target: T2, Glutaminase kidney isoform, mitochondrial (Homo sapiens); test: Binding affinity to human KGA assessed as dissociation rate constant at 33 uM
[5] = biological target: T2, Glutaminase kidney isoform, mitochondrial (Homo sapiens); test: Competitive binding affinity to human KGA in presence of BPTES by biolayer interferometry
[6] = biological target: T2, Glutaminase kidney isoform, mitochondrial (Homo sapiens); test: Competitive binding affinity to human KGA after 1 hr in presence of ebselen by biolayer interferometry

## COc1ccc2[se]n(CCCCCCn3[se]c4ccc(OCCCCC[C@@H]5SC[C@@H]6NC(=O)N[C@@H]65)cc4c3=O)c(=O)c2c1
[1]
  IC50: 73 nM
[2]
  Kd: 142 nM
[3]
  Ka: 1.4 ×10⁴ /Ms
[4]
  Kdiss: 2 ×10⁻³ /s
[5]
  Activity: Active
[6]
  Activity: inactive
